Results as given in patent US12465658B2, “Eye drop composition” (Aratana Therapeutics, Inc., priority 2012, dated 2025).
Where two headings read alike, the source gives them in different places.

What was measured:
[1] = test system: herpes simplex virus type 1 (HSV-1); details: in vivo, reported; cited from earlier work
[2] = Solubility of A-5021 by slurry experiments (24 h equilibration, filtration, HPLC of filtrate); assay type: physicochemical; details: for solubility at 24 h: thermodynamic from solid
Protocol: In order to determine the solubility of A-5021 (i.e. 2-amino-9-[[(1S,2R)-1,2-bis(hydroxymethyl)cyclopropyl]methyl]-1,9-dihydro-6H-Purin-6-one), a first series of 33 slurry experiments was performed. Within these experiments a set of 33 different systems (varying in i.e. buffers, co-solvents, solubilizing agents) were considered. The following six buffers were used: HCl buffer (pH 2), phosphate buffer (pH 6.8 and 7.4), tris(hydroxymethyl)aminoethane buffer (pH 9), sodium carbonate/bicarbonate (pH 10.8), and potassium dihydrogen phosphate (pH 12). As co-solvents dimethyl sulfoxide (DMSO), dimethyl acetamide (DMA), N-methyl pyrrolidone (NMP), ethanol (EtOH), and propylene glycol were used with varying concentrations. The solubilizing agents used were propylene glycol, glycerin, solutol HS 15, polysorbate 80, beta-cyclodextrin, hydroxypropyl beta-cyclodextrin (Kleptose® HPB), cremophor EL, cremophor RH 60, polyethylene glycol (PEG) 300, PEG 400, and sulfobutylether beta-cyclodextrin (e.g. Captisol®). The solubility was determined by filtration of the slurries after 24 h equilibration time. The A-5021 concentration in the filtrates was analyzed by High-Performance Liquid Chromatography (HPLC), from which the corresponding solubility was calculated.
Two different buffer systems, co-solvents, and solubilizing agents were considered with focus on systems that gave the best results as reported above. The solubility was again determined by filtration of the slurries after 24 h equilibration time. The A-5021 concentration in the filtrates was analyzed by HPLC, from which the corresponding solubility was calculated. Overall, no greater solubility values than the already reported values were found. […] A close to neutral pH buffered system (80% v/v propylene glycol and 20% v/v phosphate buffer at pH 7.4), which is of interest to develop ophthalmic solutions (allowing topical application of A-5021 to herpes virus-infected eyes) allows to solubilize A-5021 at 8.18 mg/mL. When 2-hydroxypropyl beta-cyclodextrin (HPBC) is used as a solubilizing agent instead of propylene glycol, the solubility of A-5021 decreases compared to the propylene glycol buffered systems.

[3] = background; more than 1 mg/mL typically requires pH below 4 or above 10; cited from earlier work
[4] = Vehicle candidates tested to solubilize A-5021 at 5 mg/mL at neutral pH; assay type: physicochemical; details: aqueous with cosolvent or surfactant or cyclodextrin, pH 6.98-7.1 1, read-out: concentration of A-5021 solubilized
Protocol: Based on the above indicated results and in order to be able to formulate A-5021 at pharmacologically active concentrations (preferably about […]), it was considered to investigate of additional solubilizing agents and/or keeping a high amount of propylene glycol at neutral pH. In total 28 vehicle candidates were tested to solubilize A-5021 at 5 mg/mL at neutral pH: propylene glycol at concentration ranging from 20% to 80% w/v, glycofurol at concentration ranging from 5% to 50% w/v, glycerol at concentration ranging from 15% to 50% w/v, 15% w/v glycerol+15 w/v glycofurol, 25% w/v propylene glycol+25% w/v glycofurol, propylene glycol (range: 15%-60% w/v)+glycerol (range: 5%-15% w/v), 25% w/v Kleptose® HPB+25% propylene glycol, cremophor RH 40, cremophor EL, solutol HS 15, 40-50% Kleptose® HPB, miglyol 812N, liquid paraffin, polyvinylpyrrolidone K12.
Only four vehicles allowed solubilizing A-5021 at the concentration of 5 mg/mL (0.5% w/v) at close to neutral pH (the pH ranged from 6.98-7.1 1). These vehicles are (% w/v in water): • (i) 80% w/v propylene glycol; • (ii) 50% w/v Kleptose® HPB; • (iii) 60% w/v propylene glycol+15% w/v glycerol; • (iv) 60% w/v propylene glycol+10% w/v glycerol.

[5] = test system: herpes simplex virus type 2 (HSV-2); details: in vivo, reported; cited from earlier work
herpes virus = details: Neyts et al. 2001; Iwayama et al. 1998; cited from earlier work
varicella-zoster (VZV) = details: in vivo, reported; cited from earlier work

solubility at 24 h ([2]; 80% (v/v) propylene glycol / 20% (v/v) buffer, pH 1, aqueous with cosolvent or surfactant or cyclodextrin, 80% (v/v) propylene glycol in 20% (v/v) buffer (pH 1 1.3), highest solubility): 8640 µg/mL | solubility at 24 h ([2]; 80% v/v propylene glycol / 20% v/v phosphate buffer, pH 7.4, aqueous with cosolvent or surfactant or cyclodextrin, 80% v/v propylene glycol and 20% v/v phosphate buffer at pH 7.4): 8180 µg/mL | solubility at 24 h ([2]; pH 2.2, aqueous with cosolvent or surfactant or cyclodextrin, 60% v/v HCl buffer and 40% w/v HPBC, pH 2.2): 6760 µg/mL | solubility at 24 h ([2]; pH 2.8, aqueous with cosolvent or surfactant or cyclodextrin, acidic pH 2.8 instead of pH 11.3, room temperature): 8500 µg/mL | solubility at 24 h ([2]; pH 7, aqueous with cosolvent or surfactant or cyclodextrin, 5.7-33.34% v/v propylene glycol, 33.33-40% w/v/v HPBC, 33.34-54.3% v/v buffer, pH 7.0-7.4): 3280 to 4050 µg/mL | solubility at 24 h ([2]; pH 7, aqueous with cosolvent or surfactant or cyclodextrin, 60% v/v HCl buffer and 40% w/v HPBC, pH 7): 4910 µg/mL | effect on solubility of adding an organic co-solvent ([2]; pH 12 buffered solutions): does not improve the solubility | solubility ([4]; vehicle (i) 80% w/v propylene glycol in water): 5000 µg/mL | solubility ([4]; vehicle (ii) 50% w/v Kleptose HPB in water): 5000 µg/mL | solubility ([4]; vehicle (iii) 60% w/v propylene glycol+15% w/v glycerol in water): 5000 µg/mL | solubility ([4]; vehicle (iv) 60% w/v propylene glycol+10% w/v glycerol in water): 5000 µg/mL
SMILES: Nc1nc2c(ncn2C[C@]2(CO)C[C@H]2CO)c(=O)[nH]1 [Formulation A-5021, 2-amino-9-[[(1S,2R)-1,2-bis(hydroxymethyl)cyclopropyl]methyl]-1,9-dihydro-6H-Purin-6-one]
antiviral activity [1]: potent and selective antiviral agent | solubility [3]: poor solubility | antiviral activity [5]: potent and selective antiviral agent | inhibition of herpes virus replication (herpes virus): potent inhibitor | antiviral activity (varicella-zoster (VZV)): potent and selective antiviral agent
